The text below walks through data of paper PMC7311426, “An amphipathic peptide with antibiotic activity against multidrug-resistant Gram-negative bacteria” (Nature Communications, 2020).

One data set is described as follows: in vitro. To be noted: human.
The test system of data set [1] is HepG2 liver hepatocellular carcinoma cells. Nature of the data set: in vitro.
The subject of data set [2] is HK-2 human kidney proximal tubule cells. Nature of the data set: in vitro.
Data set [3] concerns HEK-293 human embryonic kidney cells. Nature of the data set: in vitro.
Data set [4] has as its system human erythrocytes (HRBC). Format: cell-based.
A further data set is described as follows: in vivo. To be noted: both, mouse, plasma, inhaled or intranasal; for AUC(0-t) / Cmax: Plasma, mice.
Setting [5] is: 5 mg kg-1/day, Day 1, 5 mg kg-1/day, 2 hour daily inhalation.
Where [6] appears, read: 5 mg kg-1/day, Day 7, 5 mg kg-1/day, inhalation.
Where [7] appears, read: 40 mg kg-1/day, Day 1, 40 mg kg-1/day, inhalation.

Residues, ends and D or L forms follow the SMILES beside them. Some results are limits rather than exact numbers.

As for `CC(C)[C@@H]1NC(=O)[C@H](Cc2ccc(O)cc2)NC(=O)[C@H](Cc2c[nH]c3ccccc23)NC(=O)[C@@H](NC(=O)[C@H](Cc2ccccc2)NC(=O)CN)CSSC[C@@H](C(=O)N[C@@H](CC(N)=O)C(=O)O)NC(=O)[C@H](CCCNC(=N)N)NC(=O)[C@H](CCCNC(=N)N)NC(=O)[C@H](Cc2ccc(O)cc2)NC(=O)[C@@H]2CSSC[C@H](NC1=O)C(=O)N[C@@H](C)C(=O)N[C@@H](CCCNC(=N)N)C(=O)N[C@@H](CCCNC(=N)N)C(=O)N[C@@H](CC(N)=O)C(=O)NCC(=O)N[C@@H](C)C(=O)N[C@@H](CCCNC(=N)N)C(=O)N[C@@H](C(C)C)C(=O)N2` [AA139] (HELM PEPTIDE1{G.F.C.W.Y.V.C.A.R.R.N.G.A.R.V.C.Y.R.R.C.N}$PEPTIDE1,PEPTIDE1,3:R3-20:R3|PEPTIDE1,PEPTIDE1,7:R3-16:R3$$$V2.0), the CC50 – broadly, the concentration giving 50% cytotoxicity – at 24 h in “in vitro” (HEK-293 cells) is more than 300 µg/mL; in the data set “in vitro” (HK-2 cells), more than 250 µg/mL; in the data set “in vitro” (HepG2 cells), more than 300 µg/mL. For the same compound, the “CC50 HepG2” value in data set [1] was more than 300 µg/mL. In addition, in data set [1], the “CC50 HepG2, Mean” value is more than 300 µg/mL. In data set [2], the “CC50 HK2” value was more than 255 µg/mL. Also, the “CC50 HK2, Mean” value in data set [2] was more than 250 µg/mL. In addition, in data set [3], the “CC50 HEK293, Mean” value was more than 300 µg/mL. Moreover, the “Heamolysis HC10, Mean” value in data set [4] was more than 300 µg/mL. Also, the “Heamolysis HC10” value in data set [4] (red cells of human, 3 h) was more than 300 µg/mL. In addition, the Tmax in “in vivo” (5 mg kg-1/day), in the data set “in vivo” (20 mg kg-1/day) and in the data set “in vivo” (40 mg kg-1/day) was 18 min each time. Moreover, the values for the AUC(0-t) in the data set “in vivo” (setting [5]), in “in vivo” (setting [6]) and in the data set “in vivo” (setting [7]) were 262 ng·h/mL, 85 ng·h/mL and 4540 ng·h/mL, respectively. The maximum concentration (Cmax) (usually the highest concentration seen after dosing) in “in vivo” (setting [5]) stood at 122 ng/mL; in “in vivo” (setting [6]) it was 64 ng/mL; in “in vivo” (20 mg kg-1/day, Day 1, 20 mg kg-1/day, inhalation), 952 ng/mL; in the data set “in vivo” (20 mg kg-1/day, Day 7, 20 mg kg-1/day, inhalation), 467 ng/mL; in the data set “in vivo” (setting [7]), 2460 ng/mL.
